# According to ChEMBL document CHEMBL1201862, “PubChem BioAssay data set” (2004):
#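 How tested: cells in 96-well plates exposed to compound for 48 hours at five concentrations. GI50 marks 50% less growth.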 The source made the active and inactive calls. No stated cut-off is given here; in the data, active = GI50 up to about 1.1 µM and inactive = higher.
# Key:
# Assay in all cases: inhibition of tumour cell growth, NCI panel, 48 h
# [1] = test system: 786-0
# [2] = test system: A549
# [3] = test system: CCRF-CEM
# [4] = test system: EKVX
# [5] = test system: HCT-15
# [6] = test system: IGROV-1
# [7] = test system: K562
# [8] = test system: LOX IMVI
# [9] = test system: NCI-H23
# [10] = test system: OVCAR-4
# [11] = test system: RPMI-8226
# [12] = test system: RXF 393
# [13] = test system: SF-295
# [14] = test system: SF-539
# [15] = test system: SK-MEL-5
# [16] = test system: SN12C
# [17] = test system: SNB-75
# [18] = test system: SW-620
# [19] = test system: TK-10
# [20] = test system: UACC-257
SMILES,GI50 [1],GI50 [2],GI50 [3],GI50 [4],GI50 [5] [µM],GI50 [6],GI50 [7],GI50 [8],GI50 [9],GI50 [10],GI50 [11],GI50 [12],GI50 [13],GI50 [14],GI50 [15],GI50 [16],GI50 [17],GI50 [18],GI50 [19],GI50 [20]
CN(CCN(C)CCN(C)C(=O)Cc1ccc(Cl)c(Cl)c1)CCN1CCCC1,19.5 µM (inactive),37 µM (inactive),11.6 µM (inactive),45.4 µM (inactive),37.3,31.1 µM (inactive),3.24 µM (inactive),16.6 µM (inactive),30.5 µM (inactive),77.6 µM (inactive),5.5 µM (inactive),16.2 µM (inactive),19.6 µM (inactive),21.8 µM (inactive),15.2 µM (inactive),39 µM (inactive),28 µM (inactive),20.3 µM (inactive),26.1 µM (inactive),5.11 µM (inactive)
COC1=C(C(c2cc(OC)c(OC)c(OC)c2)c2cc3c(cc2OC)OCO3)C(=O)OC1 (stereo not given),26.1 µM (inactive),20.1 µM (inactive),21.4 µM (inactive),28.4 µM (inactive),20.4,29.4 µM (inactive),15 µM (inactive),10 µM (inactive),24.8 µM (inactive),30.4 µM (inactive),46 µM (inactive),11.7 µM (inactive),15.1 µM (inactive),15.4 µM (inactive),22.8 µM (inactive),34.8 µM (inactive),> 37.9 µM (inactive),27 µM (inactive),> 44 µM (inactive),> 34.4 µM (inactive)
CC#C[C@@]1(O)CCCC[C@@H]1O,> 100 µM (inactive),> 100 µM (inactive),> 100 µM (inactive),> 100 µM (inactive),> 100,> 100 µM (inactive),> 100 µM (inactive),> 100 µM (inactive),> 100 µM (inactive),> 100 µM (inactive),> 100 µM (inactive),> 100 µM (inactive),> 100 µM (inactive),> 100 µM (inactive),> 100 µM (inactive),> 100 µM (inactive),> 100 µM (inactive),> 100 µM (inactive),> 100 µM (inactive),> 100 µM (inactive)
O=c1[nH]c2cc(C(F)(F)F)ccc2nc1C(F)(F)F,37 µM (inactive),32.6 µM (inactive),30.8 µM (inactive),32.3 µM (inactive),37.2,29.3 µM (inactive),50.2 µM (inactive),30.8 µM (inactive),27.2 µM (inactive),51.5 µM (inactive),31.5 µM (inactive),20.3 µM (inactive),30 µM (inactive),25.2 µM (inactive),13.8 µM (inactive),29.7 µM (inactive),30.2 µM (inactive),53.3 µM (inactive),49.7 µM (inactive),27.6 µM (inactive)
CN(/N=C/c1cccc2cccnc12)c1ccc([N+](=O)[O-])cc1[N+](=O)[O-],13.3 µM (inactive),48.5 µM (inactive),> 96.6 µM (inactive),45.8 µM (inactive),63,24.5 µM (inactive),> 100 µM (inactive),57.9 µM (inactive),24.5 µM (inactive),20.7 µM (inactive),> 90.2 µM (inactive),17.1 µM (inactive),13 µM (inactive),11.3 µM (inactive),52.5 µM (inactive),46.1 µM (inactive),10.1 µM (inactive),99.5 µM (inactive),29 µM (inactive),82 µM (inactive)
